Reference: PMC6858373 (Scientific Reports, 2019)
Read-outs that look alike come from different tables or passages of the source.

What was measured:
[1] = target: full-length P. pyralis luciferase (Photinus pyralis, UniProt P08659, K549A/L550V/N119G/N50D/S548I); type: cell-based
[2] = target: T1, FGF14:Nav1.6 C-tail complex (Homo sapiens, UniProt Q92915+Q9UQD0); assay: Split-luciferase complementation assay (LCA) in Clone V double stable HEK293 cells; type: cell-based; conditions: for Split Luciferase Assay % Lum Set 1 / Split Luciferase Assay %Lum Set 2: normalized to on-plate 0.3% DMSO controls (n=16 per plate); for Split Luciferase Assay %Lum Avg: average of Set 1 and Set 2, normalized to 0.3% DMSO controls
T1 construct: polymerase chain reaction (PCR) amplification of the FGF14 open reading frame (nt 1–855); C-terminal fragment of Nav1.6 (amino acids 1763–1976) fused with CD4ΔC-tail (amino acids 1–395); expressed in transfected cells
T1 sequence (Q92915 1-252 isoform Q92915-2): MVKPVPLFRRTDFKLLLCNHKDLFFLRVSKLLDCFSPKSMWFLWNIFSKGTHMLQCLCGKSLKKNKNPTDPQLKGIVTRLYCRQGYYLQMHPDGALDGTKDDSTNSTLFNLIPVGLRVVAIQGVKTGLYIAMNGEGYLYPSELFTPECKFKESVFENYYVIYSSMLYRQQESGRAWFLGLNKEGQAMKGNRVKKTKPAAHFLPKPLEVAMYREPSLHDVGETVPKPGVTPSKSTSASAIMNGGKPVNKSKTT
T1 sequence (Q9UQD0 1763-1976 limits assumed): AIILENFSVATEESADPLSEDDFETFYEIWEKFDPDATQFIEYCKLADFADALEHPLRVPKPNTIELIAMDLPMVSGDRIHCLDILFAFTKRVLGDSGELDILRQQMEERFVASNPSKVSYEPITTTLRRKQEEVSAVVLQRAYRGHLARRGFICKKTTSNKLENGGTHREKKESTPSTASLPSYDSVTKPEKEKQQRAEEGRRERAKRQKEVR

[3] = CC_NCI screening, full-length luciferase counter-screen luminescence, normalized to on-plate 0.3% DMSO controls
[4] = CC_NCI screening, full-length luciferase counter-screen, normalized to on-plate 0.3% DMSO controls
[5] = CC_NCI screening, LCA luminescence, biological replicate Set 1
[6] = CC_NCI screening, LCA luminescence, biological replicate Set 2
[7] = CC_NCI screening, LCA, biological replicate Set 1, normalized to on-plate 0.3% DMSO controls
[8] = CC_NCI screening, LCA, biological replicate Set 2, normalized to on-plate 0.3% DMSO controls
[9] = CC_NCI screening, normalized to on-plate 0.3% DMSO controls
[10] = CC_NCI screening, biological replicate Set 1, normalized to on-plate 0.3% DMSO controls
[11] = CC_NCI screening, biological replicate Set 1
[12] = CC_NCI screening, biological replicate Set 2, normalized to on-plate 0.3% DMSO controls
[13] = CC_NCI screening, biological replicate Set 2

Chain of full-length P. pyralis luciferase (P08659 whole entry N50D/N119G/S548I/K549A/L550V, looked up): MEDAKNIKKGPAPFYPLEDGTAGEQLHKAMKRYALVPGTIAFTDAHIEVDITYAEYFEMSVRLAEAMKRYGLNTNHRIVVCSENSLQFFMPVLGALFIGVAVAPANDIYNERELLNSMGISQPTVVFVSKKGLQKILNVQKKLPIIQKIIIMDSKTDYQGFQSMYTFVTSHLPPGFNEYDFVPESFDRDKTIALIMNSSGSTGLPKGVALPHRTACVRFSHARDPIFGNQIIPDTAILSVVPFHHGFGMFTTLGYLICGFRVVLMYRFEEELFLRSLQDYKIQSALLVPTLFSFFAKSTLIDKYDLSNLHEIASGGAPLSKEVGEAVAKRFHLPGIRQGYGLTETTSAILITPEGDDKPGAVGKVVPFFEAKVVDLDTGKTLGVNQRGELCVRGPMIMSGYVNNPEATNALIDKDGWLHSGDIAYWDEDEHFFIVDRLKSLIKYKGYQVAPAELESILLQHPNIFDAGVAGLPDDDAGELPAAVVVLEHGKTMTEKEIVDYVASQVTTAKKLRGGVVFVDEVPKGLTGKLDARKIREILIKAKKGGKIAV

| SMILES | Luciferase Assay % Lum [1, 3] [%] | Luciferase Assay Z-score [1, 4] | Split Luciferase Assay % Lum Set 1 [2, 5] [%] | Split Luciferase Assay %Lum Set 2 [2, 6] [%] | Split Luciferase Assay Z-score Set 1 [2, 7] | Split Luciferase Assay Z-score Set 2 [2, 8] | Split Luciferase Assay %Lum Avg ([2]; CC_NCI screening) [%] | Luciferase Assay % Lum (full-length luciferase counter-screen) [1, 9] [%] | Luciferase Assay Z-score (full-length luciferase counter-screen) [1, 9] | Toxicity Assay % Fluor (CTB cell viability fluorescence) (Clone V cells) [%] | Toxicity Assay Z-score (CTB cell viability) (Clone V cells) | Split Luciferase Assay Z-score Set 1 [2, 10] | Split Luciferase Assay % Lum Set 1 [2, 11] [%] | Split Luciferase Assay Z-score Set 2 [2, 12] | Split Luciferase Assay %Lum Set 2 [2, 13] [%] | Split Luciferase Assay %Lum Avg [2] [%] | Toxicity Assay % Fluor (Clone V cells; human, 16 h, 30 µM) [%] | Toxicity Assay Z-score (Clone V cells; human, 16 h, 30 µM) | also measured |
| --- | --- | --- | --- | --- | --- | --- | --- | --- | --- | --- | --- | --- | --- | --- | --- | --- | --- | --- | --- |
| COc1cc(Nc2c(C#N)cnc3cc(OCCCN4CCN(C)CC4)c(OC)cc23)c(Cl)cc1Cl [Bosutinib] | 70.20 | -3.82 | 10.11 | 17.69 | -7.26 | -6.70 | 13.90 | – | – | – | – | – | – | – | – | – | – | – | Toxicity Assay % Fluor (Clone V cells): 75.29%; Toxicity Assay Z-score (Clone V cells): -3.45 |
| COc1ccc2c(c1OC)N=C(NC(=O)c1cccnc1)N1CCN=C21 [PIK 90] | – | – | – | – | – | – | – | 102.65 | 0.34 | 101.53 | 0.21 | -0.15 | 98.17 | -1.11 | 86.35 | 92.26 | – | – | – |
| Cc1nc2sccn2c(=O)c1CCN1CCC(=C(c2ccccc2)c2ccc(F)cc2)CC1 [Compound R59022] | – | – | – | – | – | – | – | 55.65 | -5.68 | 113.72 | 1.92 | -1.91 | 76.42 | -0.10 | 98.83 | 87.63 | – | – | – |
| CN(C)Cc1c(C(=O)NCCOc2ccc(C(=O)NO)cc2)oc2ccccc12 [PCI-24781] | 91.15 | -1.13 | 118.82 | 98.83 | 1.52 | -0.10 | 108.83 | – | – | – | – | – | – | – | – | – | 93.46 | -0.91 | – |
| Cc1nc(Nc2ncc(C(=O)Nc3c(C)cccc3Cl)s2)cc(N2CCN(CCO)CC2)n1 [DASATINIB] | 82.88 | -2.19 | 38.37 | 65.54 | -4.98 | -2.80 | 51.96 | – | – | – | – | – | – | – | – | – | 83.83 | -2.26 | – |
| Nc1ccccc1NC(=O)c1ccc(CNC(=O)OCc2cccnc2)cc1 [MS-275] | – | – | – | – | – | – | – | 107.21 | 0.92 | 101.17 | 0.16 | -2.96 | 63.38 | -2.38 | 70.74 | 67.06 | – | – | – |
| NC(=O)c1ccc(I)c([N+](=O)[O-])c1 [BSI-201] | 101.73 | 0.22 | 102.51 | 112.35 | 0.20 | 1.01 | 107.43 | – | – | – | – | – | – | – | – | – | 93.94 | -0.85 | – |
| O=C1NC(=O)c2c1c1c3ccccc3n3c1c1c2c2ccccc2n1C1CCC3O1 [SB 218078] | – | – | – | – | – | – | – | 92.40 | -0.97 | 109.07 | 1.27 | -1.55 | 80.77 | -1.79 | 78.02 | 79.40 | – | – | – |
| O=C(CCCCCCC(=O)Nc1ccccc1)NO [VORINOSTAT] | – | – | – | – | – | – | – | 84.44 | -1.99 | 108.87 | 1.24 | 0.47 | 105.78 | -1.96 | 75.94 | 90.86 | – | – | – |
| Cc1cc(C(C)Nc2ccccc2)c2nc(N3CCOCC3)cc(=O)n2c1 (centres unmarked) [TGX 221] | – | – | – | – | – | – | – | 101.89 | 0.24 | – | 2.19 | 0.82 | 110.12 | 1.94 | 123.80 | 116.96 | – | – | – |
| COc1cc2ncnc(Nc3cccc(Br)c3)c2cc1OC [PD 153035] | – | – | 143.82 | 121.72 | – | – | 132.77 | – | – | – | – | – | – | – | – | – | 98.57 | -0.20 | Luciferase Assay % Lum [1]: 83.75%; Luciferase Assay Z-score [1]: -2.08; Split Luciferase Assay Z-score Set 1 [2]: 3.54; Split Luciferase Assay Z-score Set 2 [2]: 1.77 |
| CC(=O)Nc1cccc(-n2c(=O)n(C3CC3)c(=O)c3c(Nc4ccc(I)cc4F)n(C)c(=O)c(C)c32)c1 [Trametinib] | 95.81 | -0.54 | 101.43 | 79.06 | 0.12 | -1.70 | 90.25 | – | – | – | – | – | – | – | – | – | 92.79 | -1.01 | – |
| Cc1cc2c(F)c(Oc3ncnn4cc(OC[C@@H](C)O)c(C)c34)ccc2[nH]1 [Brivanib] | 64.23 | -4.58 | 34.03 | 35.37 | -5.33 | -5.26 | 34.70 | – | – | – | – | – | – | – | – | – | 92.51 | -1.05 | – |
| COc1cc2c(Nc3ccc(NC(=O)c4ccccc4)cc3)ncnc2cc1OCCCN1CCOCC1 [ZM447439] | – | – | – | – | – | – | – | 98.24 | -0.23 | 106.45 | 0.90 | 1.70 | 120.99 | -1.70 | 79.06 | 100.03 | – | – | – |
| CN(C)C(=N)N=C(N)N [METFORMIN] | – | – | 117.73 | 114.43 | 1.43 | 1.17 | 116.08 | – | – | – | – | – | – | – | – | – | 91.06 | -1.25 | Luciferase Assay % Lum [1]: 96.22%; Luciferase Assay Z-score [1]: -0.48 |
